Results from the supplement of paper PMC10307832.

Tests used:
Experiment in all cases: relative viability (nuclei count vs DMSO), 5 days (fraction); higher = more cells survive
[1] = compound: c1ccc2c(CCNc3ccc(Nc4ccncc4)cc3)c[nH]c2c1 [Serdemetan] + O=C(c1cc(Cc2n[nH]c(=O)c3ccccc23)ccc1F)N1CCN(C(=O)C2CC2)CC1 [Olaparib] (partner 8 µM)
Procedure, shortened: (§1)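 Lung cancer cell lines, seeded in 1536-well plates, were treated the following day by pin tool with a single drug or with five library-drug doses (not always all listed) in √10 steps on top of a fixed anchor-drug dose. Cells were fixed and nuclei stained in one step after 5 days, and nuclei were counted. Relative viability is the nuclei count for treated wells divided by that for vehicle wells, reported as medians of duplicate plates.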

[2] = compound: c1ccc2c(CCNc3ccc(Nc4ccncc4)cc3)c[nH]c2c1 [Serdemetan] + C[C@@H](Oc1cc(-c2cnn(C3CCNCC3)c2)cnc1N)c1c(Cl)ccc(F)c1Cl [Crizotinib] (partner 1 µM)
Procedure, shortened: as §1

[3] = compound: C1CC(C2=C(C1)C3=C(N2)C=CC(=C3)Cl)C(=O)N [Selisistat] + C[C@]1(O)C[C@@H](c2nc(-c3ccc4ccc(-c5ccccc5)nc4c3)c3c(N)nccn32)C1 [Linsitinib] (partner 1 µM)
Procedure, shortened: as §1

[4] = compound: c1ccc2c(CCNc3ccc(Nc4ccncc4)cc3)c[nH]c2c1 [Serdemetan] + Nc1nc2[nH]cc(CCc3ccc(C(=O)N[C@@H](CCC(=O)O)C(=O)O)cc3)c2c(=O)[nH]1 [Pemetrexed] (partner 0.2 µM)
Procedure, shortened: as §1

| Cell Line | relative viability ([1]; first compound 0.04 µM) | relative viability ([1]; first compound 0.1265 µM) | relative viability ([1]; first compound 0.4 µM) | relative viability ([1]; first compound 1.265 µM) | relative viability ([1]; first compound 4 µM) | relative viability ([2]; first compound 0.04 µM) | relative viability ([2]; first compound 0.1265 µM) | relative viability ([2]; first compound 0.4 µM) | relative viability ([2]; first compound 1.265 µM) | relative viability ([2]; first compound 4 µM) | relative viability ([3]; first compound 0.4 µM) | relative viability ([3]; first compound 1.265 µM) | relative viability ([3]; first compound 4 µM) | relative viability ([3]; first compound 12.65 µM) | relative viability ([3]; first compound 40 µM) | relative viability ([4]; first compound 0.04 µM) | relative viability ([4]; first compound 0.1265 µM) | relative viability ([4]; first compound 0.4 µM) | relative viability ([4]; first compound 1.265 µM) | relative viability ([4]; first compound 4 µM) |
| --- | --- | --- | --- | --- | --- | --- | --- | --- | --- | --- | --- | --- | --- | --- | --- | --- | --- | --- | --- | --- |
| NCI-H2087 | 0.481 | 0.473 | 0.433 | 0.207 | 0.217 | 1.14 | 0.746 | 0.699 | 0.426 | 0.487 | 0.953 | 0.957 | 0.885 | 0.737 | 0.818 | 0.704 | 0.611 | 0.643 | 0.404 | 0.28 |
| LC-2-ad | 0.703 | 0.629 | 0.63 | 0.536 | 0.511 | 0.455 | 0.429 | 0.39 | 0.394 | 0.407 | 0.88 | 0.846 | 0.867 | 0.808 | 0.856 | 0.255 | 0.231 | 0.269 | 0.255 | 0.267 |
| NCI-H1915 | 0.238 | 0.242 | 0.223 | 0.208 | 0.24 | 0.86 | 0.887 | 0.833 | 0.709 | 0.59 | 1.15 | 1.09 | 1.14 | 1.08 | 1.13 | 0.52 | 0.517 | 0.493 | 0.491 | 0.489 |
| NCI-H2023 | 0.512 | 0.459 | 0.323 | 0.152 | 0.203 | 0.688 | 0.644 | 0.452 | 0.286 | 0.237 | 0.686 | 0.581 | 0.662 | 0.735 | 0.569 | 0.213 | 0.223 | 0.227 | 0.206 | 0.217 |
| COR-L 105 | 0.774 | 0.677 | 0.542 | 0.603 | 0.565 | 0.729 | 0.716 | 0.709 | 0.874 | 0.838 | 0.755 | 0.918 | 0.933 | 1.02 | 0.914 | 1.06 | 0.991 | 0.948 | 1.14 | 0.967 |
| RERF-LC-KJ | 1.03 | 0.872 | 0.889 | 0.747 | 0.835 | 0.763 | 0.818 | 0.718 | 0.705 | 0.753 | 0.969 | 0.878 | 0.937 | 0.88 | 0.775 | 0.455 | 0.456 | 0.452 | 0.475 | 0.49 |
| LXF-289 | 1.1 | 1.11 | 0.939 | 0.794 | 0.388 | 0.754 | 0.776 | 0.719 | 0.637 | 0.689 | 0.995 | 0.954 | 0.895 | 0.913 | 1.01 | 0.894 | 0.989 | 0.86 | 0.76 | 0.795 |
| PC-14 | 0.307 | 0.261 | – | 0.204 | 0.167 | 0.899 | 0.87 | 0.793 | 0.649 | 0.745 | 0.951 | 1.05 | 0.963 | 0.946 | 0.951 | 0.133 | 0.139 | – | 0.137 | 0.143 |
